Experimental data taken from the NIST ThermoML archive (doi:10.1021/je100687x).

Assay: xn = mol fraction of the nth substance listed
Details: 101 kPa, Liquid; for electrical conductivity: Crison GLP 31+ conductivimeter

CCCCn1cc[n+](C)c1.F[B-](F)(F)F [1-butyl-3-methylimidazolium tetrafluoroborate] + CCO
Details | electrical conductivity [S/m] | viscosity [mPa·s]
288.15 K, x2 = 0 | – | 173.5
288.15 K, x2 = 0.0765 | – | 121.4
288.15 K, x2 = 0.199 | – | 69.06
288.15 K, x2 = 0.2894 | – | 45.23
288.15 K, x2 = 0.3918 | – | 28.39
288.15 K, x2 = 0.4976 | – | 18.13
288.15 K, x2 = 0.6001 | – | 12.35
288.15 K, x2 = 0.717 | – | 7.86
288.15 K, x2 = 0.7998 | – | 5.676
288.15 K, x2 = 0.9014 | – | 3.06
298.15 K, x2 = 0 | 0.352 | 99.2
298.15 K, x2 = 0.0368 | 0.393 | –
298.15 K, x2 = 0.0765 | – | 72.49
298.15 K, x2 = 0.1136 | 0.522 | –
298.15 K, x2 = 0.1492 | 0.594 | –
298.15 K, x2 = 0.199 | – | 44.05
298.15 K, x2 = 0.2894 | – | 30.15
298.15 K, x2 = 0.2992 | 0.939 | –
298.15 K, x2 = 0.3918 | – | 19.7
298.15 K, x2 = 0.4162 | 1.268 | –
298.15 K, x2 = 0.4976 | – | 12.97
298.15 K, x2 = 0.5137 | 1.551 | –
298.15 K, x2 = 0.5866 | 1.729 | –
298.15 K, x2 = 0.6001 | – | 9.038
298.15 K, x2 = 0.6426 | 1.826 | –
298.15 K, x2 = 0.6863 | 1.871 | –
298.15 K, x2 = 0.717 | – | 5.25
298.15 K, x2 = 0.7204 | 1.874 | –
298.15 K, x2 = 0.7498 | 1.859 | –
298.15 K, x2 = 0.7947 | 1.745 | –
298.15 K, x2 = 0.7998 | – | 4.286
298.15 K, x2 = 0.8394 | 1.564 | –
298.15 K, x2 = 0.8763 | 1.343 | –
298.15 K, x2 = 0.8835 | 1.297 | –
298.15 K, x2 = 0.8908 | 1.249 | –
298.15 K, x2 = 0.9014 | – | 2.371
298.15 K, x2 = 0.9034 | 1.155 | –
298.15 K, x2 = 0.9134 | 1.077 | –
298.15 K, x2 = 0.9217 | 1.01 | –
298.15 K, x2 = 0.9287 | 0.94 | –
298.15 K, x2 = 0.9347 | 0.874 | –
298.15 K, x2 = 0.9399 | 0.825 | –
298.15 K, x2 = 0.9493 | 0.733 | –
298.15 K, x2 = 0.9564 | 0.658 | –
298.15 K, x2 = 0.9617 | 0.597 | –
298.15 K, x2 = 0.9668 | 0.536 | –
298.15 K, x2 = 0.9755 | 0.423 | –
298.15 K, x2 = 0.9897 | 0.221 | –
298.15 K, x2 = 0.9916 | 0.194 | –
298.15 K, x2 = 0.9934 | 0.162 | –
298.15 K, x2 = 0.9972 | 0.0851 | –
308.15 K, x2 = 0 | – | 61.3
308.15 K, x2 = 0.0765 | – | 46.39
308.15 K, x2 = 0.199 | – | 29.81
308.15 K, x2 = 0.2894 | – | 21.18
308.15 K, x2 = 0.3918 | – | 14.45
308.15 K, x2 = 0.4976 | – | 9.836
308.15 K, x2 = 0.6001 | – | 7.026
308.15 K, x2 = 0.717 | – | 4.056
308.15 K, x2 = 0.7998 | – | 3.363
308.15 K, x2 = 0.9014 | – | 1.947
318.15 K, x2 = 0 | – | 40.4
318.15 K, x2 = 0.0765 | – | 31.43
318.15 K, x2 = 0.199 | – | 21.16
318.15 K, x2 = 0.2894 | – | 15.5
318.15 K, x2 = 0.3918 | – | 11.01
318.15 K, x2 = 0.4976 | – | 7.691
318.15 K, x2 = 0.6001 | – | 5.567
318.15 K, x2 = 0.717 | – | 3.252
318.15 K, x2 = 0.7998 | – | 2.723
318.15 K, x2 = 0.9014 | – | 1.641

CCCCCCn1cc[n+](C)c1.F[B-](F)(F)F [1-hexyl-3-methylimidazolium tetrafluoroborate] + CCO
Details | electrical conductivity [S/m] | viscosity [mPa·s]
288.15 K, x2 = 0 | – | 357.5
288.15 K, x2 = 0.1 | – | 207.2
288.15 K, x2 = 0.197 | – | 118.9
288.15 K, x2 = 0.298 | – | 69.02
288.15 K, x2 = 0.3877 | – | 48.92
288.15 K, x2 = 0.4921 | – | 27.71
288.15 K, x2 = 0.6009 | – | 16.92
288.15 K, x2 = 0.7 | – | 9.866
288.15 K, x2 = 0.8002 | – | 5.545
288.15 K, x2 = 0.902 | – | 2.893
298.15 K, x2 = 0 | 0.126 | 190.9
298.15 K, x2 = 0.1 | – | 119.2
298.15 K, x2 = 0.197 | – | 72.6
298.15 K, x2 = 0.2439 | 0.33 | –
298.15 K, x2 = 0.298 | – | 43.77
298.15 K, x2 = 0.3877 | – | 32.06
298.15 K, x2 = 0.3981 | 0.565 | –
298.15 K, x2 = 0.4566 | 0.66 | –
298.15 K, x2 = 0.4921 | – | 18.86
298.15 K, x2 = 0.507 | 0.769 | –
298.15 K, x2 = 0.5491 | 0.877 | –
298.15 K, x2 = 0.5861 | 0.947 | –
298.15 K, x2 = 0.6009 | – | 12.09
298.15 K, x2 = 0.6189 | 1.034 | –
298.15 K, x2 = 0.645 | 1.083 | –
298.15 K, x2 = 0.6708 | 1.129 | –
298.15 K, x2 = 0.6938 | 1.17 | –
298.15 K, x2 = 0.7 | – | 7.513
298.15 K, x2 = 0.7145 | 1.206 | –
298.15 K, x2 = 0.733 | 1.216 | –
298.15 K, x2 = 0.7495 | 1.222 | –
298.15 K, x2 = 0.7648 | 1.244 | –
298.15 K, x2 = 0.7909 | 1.25 | –
298.15 K, x2 = 0.8002 | – | 4.191
298.15 K, x2 = 0.8217 | 1.225 | –
298.15 K, x2 = 0.8454 | 1.19 | –
298.15 K, x2 = 0.8637 | 1.144 | –
298.15 K, x2 = 0.8755 | 1.109 | –
298.15 K, x2 = 0.8857 | 1.07 | –
298.15 K, x2 = 0.8946 | 1.033 | –
298.15 K, x2 = 0.902 | – | 2.284
298.15 K, x2 = 0.9042 | 0.98 | –
298.15 K, x2 = 0.9133 | 0.929 | –
298.15 K, x2 = 0.9214 | 0.879 | –
298.15 K, x2 = 0.9267 | 0.832 | –
298.15 K, x2 = 0.9347 | 0.778 | –
298.15 K, x2 = 0.9437 | 0.702 | –
298.15 K, x2 = 0.9526 | 0.621 | –
298.15 K, x2 = 0.9593 | 0.57 | –
298.15 K, x2 = 0.9686 | 0.473 | –
298.15 K, x2 = 0.9758 | 0.393 | –
298.15 K, x2 = 0.9803 | 0.331 | –
298.15 K, x2 = 0.9858 | 0.262 | –
298.15 K, x2 = 0.9892 | 0.214 | –
298.15 K, x2 = 0.9934 | 0.147 | –
298.15 K, x2 = 0.996 | 0.102 | –
298.15 K, x2 = 0.9979 | 0.0636 | –
308.15 K, x2 = 0 | – | 110.3
308.15 K, x2 = 0.1 | – | 74.2
308.15 K, x2 = 0.197 | – | 46.59
308.15 K, x2 = 0.298 | – | 29.55
308.15 K, x2 = 0.3877 | – | 22.1
308.15 K, x2 = 0.4921 | – | 13.73
308.15 K, x2 = 0.6009 | – | 9.004
308.15 K, x2 = 0.7 | – | 5.487
308.15 K, x2 = 0.8002 | – | 3.278
308.15 K, x2 = 0.902 | – | 1.867
318.15 K, x2 = 0 | – | 68.5
318.15 K, x2 = 0.1 | – | 48.17
318.15 K, x2 = 0.197 | – | 32.05
318.15 K, x2 = 0.298 | – | 21.19
318.15 K, x2 = 0.3877 | – | 16.11
318.15 K, x2 = 0.4921 | – | 10.3
318.15 K, x2 = 0.6009 | – | 6.945
318.15 K, x2 = 0.7 | – | 4.498
318.15 K, x2 = 0.8002 | – | 2.636
318.15 K, x2 = 0.902 | – | 1.506
